Laboratory results as given in US6184217A (Cephalon, Inc., priority 1997, dated 2001).

Assays:
[1] = system: striatal tyrosine hydroxylase (dopaminergic neurons); assay: Striatal tyrosine hydroxylase activity in low-dose MPTP-treated mice; assay type: in vivo, C57 black mice; details: MPTP 20 mg/kg, 7 days
Description: Experiments were conducted using Compound A in MPTP-lesioned dopaminergic neurons in mice (MPTP mouse model). A single s.c. dose of MPTP (20 mg/kg) provided to C57 black mice produced approximately 60% loss of striatal tyrosine hydroxylase activity. Administration of Compound A, at daily doses ranging from 0.01 to 10 mg/kg (s.c.), to such MPTP-treated mice reduced the loss of striatal tyrosine hydroxylase activity.
Mice were treated with MPTP (20 mg/kg; s.c.) 4-6 hours after the first Compound A injection. Compound A was then injected every day until the end of the experiment, which was 7 days in duration. Striata were assessed for tyrosine hydroxylase enzyme activity. Asterisk indicates statistically significant difference (p<0.05) from MPTP-Vehicle treated animals.

nbm neurons = assay: Ibotenic acid lesion: Fluoro-Gold-labeled nbm neurons; assay type: in vivo, Sprague-Dawley rats; details: 0.03 mg/kg s.c. every other day until 18 days post-lesion
Excerpt: To test directly the ability of Compound A to prevent excitotoxic neuron death, nbm neurons in adult male Sprague-Dawley rats were first labeled with a long-lasting marker. This was done by injecting Fluoro-Gold (FG), a neuronal tracer that is taken up by nerve terminals and transported back to the cell body (Book et al., J. Neuropath. Exp. Neurology, 53:95-102, 1994), into target regions of nbm neurons in the frontal and parietal cortex. 7-10 days later the animals received lesion of the nbm unilaterally, using 5 μg of ibotenic acid. Beginning 18 hours after this lesion, the animals received Compound A (0.03 mg/kg) via subcutaneous injection, every other day until 18 days post-lesion. Tissue sections were collected throughout the entire rostral-caudal extent of the nbm on both sides of the brain, and numbers of nbm neurons with the FG label were counted. The counts were corrected for size differences using standard procedures, and the results expressed as the percent of labeled neurons in the nbm on the lesioned side of each animal relative to the number of labeled neurons in the nbm on the opposite unlesioned side of the brain.

[2] = system: glutamatergic neurons in layer 2 of the entorhinal cortex; assay: NMDA entorhinal cortex lesion model; assay type: in vivo, rats; details: 1 mg/kg s.c. daily, p<0.05
Excerpt: Glutamate-containing neurons in layer 2 of the entorhinal cortex project to the molecular layer of the dentate gyrus, where they form synapses on the dendrites of the dentate gyrus granule cells. A lesion can be created in layer 2 of entorhinal cortex by stereotaxic injection of the excitotoxin N-methyl-D-asparate (NMDA). Under sodium pentobarbitol anesthesia, rats received an injection of NMDA (15 nmols/site) at each of 2 sites in the entorhinal cortex. Two weeks later, the rats were sacrificed and perfused with a 50 mM sodium sulfide solution. The brains were removed, sectioned in the horizontal plane at a thickness of 40 μm, and stained with either Cresyl violet or Timm'stain. The survival of neurons in layer 2 of entorhinal cortex was assessed in Cresyl violet stained sections, while the integrity of their axon terminals in the molecular layer of the dentate gyrus was measured in alternate sections stained with Timm's stain.
Injection of NMDA destroyed 62±11% (s.e.m.) of entorhinal layer 2 and decreased the area of the dentate gyrus middle molecular layer by 19±6% (s.e.m.). […] Thus, Compound A protected neurons in the entorhinal cortex from an excitotoxic lesion and maintained the integrity of their axon terminals in the dentate gyrus.

[3] = system: IL-1β production (THP-1 cells); assay: Inhibition of LPS-induced IL-1β production in THP-1 cells; assay type: cell-based; details: Homo sapiens, LPS 2 ug/ml
Description: Stock solutions consisting of 4 mM Compound A, in 100% DMSO, were stored at 4° C. Cell culture medium RPMI 1640 (Media Tech, Herndon, Va.) and fetal bovine serum (Hyclone, Logan, Utah) comprised the test medium. Lipopolysaccharide (LPS) (Sigma, St. Louis, Mo.) from E. coli serotype 0.111:B4, extracted with trichloroacetic acid, was used. Stock solutions of LPS were prepared and stored at 4° C. in phosphate-buffered saline (PBS). ELISA kits for assaying tumor necrosis factor alpha (TNF-α) and IL-1β were purchased from Boehringer-Mannheim, (Indianapolis, Ind.) and were used according to the manufacturer's instructions. THP-1 cells, a human monocyte-derived cell line, was obtained from the American Type Culture Collection (ATCC TIB 202). Cells were grown in RPMI 1640 containing 10% fetal bovine serum (medium) in a humidified atmosphere of 5% CO2 :95% air at 37° C. Experiments were performed in 24 well culture plates (Nunc) with 5×10^5 THP-1 cells in 1 ml of medium. Cells were incubated with LPS at 2 ug/ml to induce TNF-α. After a 3-hr incubation period, the cells and medium were centrifuged at 1,000×g for 5 min, and the resulting supernatant fluid was either assayed immediately for TNF-α or stored at -70° C. and assayed later. Media samples were measured for content of TNF-α and IL-1β by Elisa assays. […]

IL-1β = assay: LPS-induced IL-1β in the serum of mice; assay type: in vivo, C57BL mice; details: LPS dose 1.0 ip; 30 mg/kg ip 2 h before LPS; vehicle 300 ± 87; N = 8
Description: Sixty female C57BL mice (4-6 weeks old) were divided into six groups, each with 10 animals. Three groups (1,3,5) received vehicle only (PBS containing 0.1% TEA (tetraethyl ammonium hydrochloride)), 200 μl/mouse via intraperitoneal (ip) administration. The other three groups (2,4,6) received Compound A (30 mg/kg in 200 μl, ip) of vehicle (PBS containing 10% of the ethyl ester of 12-hydroxystearic acid; solutol). Two hours later, the animals received by ip administration, 0.1 mg/kg of LPS (groups 1 & 2), 0.5 mg/kg of LPS (groups 3 & 4), and 1.0 mg/kg of LPS (groups 5 % 6). Two hours after LPS administration, all of the animals were sacrificed, and plasma samples were obtained and assayed for their […] and IL-1β content. Assays were carried out as described in Example 8.
The numbers in are the group numbers as described above. N indicates the number of animals from which plasma measurements where made. ND=not done.

Compound: CCSCc1ccc2c(c1)c1c3c(c4c5cc(CSCC)ccc5n5c4c1n2C1CC(O)(C(=O)OC)C5(C)O1)CNC3=O (centres unmarked) [Compound A]
- % of Unlesioned Control ([1]; 0.01 mg/kg s.c. daily): 41 ± 5.3%
- Striatal TH Activity (± SEM) ([1]; 0.01 mg/kg s.c. daily): 7.76 ± 1.23
- % of Unlesioned Control ([1]; 0.03 mg/kg s.c. daily): 55 ± 3.9%
- Striatal TH Activity (± SEM) ([1]; 0.03 mg/kg s.c. daily): 10.48 ± 0.92
- % of Unlesioned Control ([1]; 0.10 mg/kg s.c. daily): 60 ± 6.5%
- Striatal TH Activity (± SEM) ([1]; 0.10 mg/kg s.c. daily): 11.51 ± 0.80
- % of Unlesioned Control ([1]; 0.30 mg/kg s.c. daily): 62 ± 5.0%
- Striatal TH Activity (± SEM) ([1]; 0.30 mg/kg s.c. daily): 11.89 ± 1.34
- % of Unlesioned Control ([1]; 1.0 mg/kg s.c. daily): 54 ± 7.0%
- Striatal TH Activity (± SEM) ([1]; 1.0 mg/kg s.c. daily): 10.39 ± 1.39
- % of Unlesioned Control ([1]; 3.0 mg/kg s.c. daily): 51 ± 5.8%
- Striatal TH Activity (± SEM) ([1]; 3.0 mg/kg s.c. daily): 9.66 ± 1.10
- % of Unlesioned Control ([1]; 10.0 mg/kg s.c. daily): 51 ± 3.7%
- Striatal TH Activity (± SEM) ([1]; 10.0 mg/kg s.c. daily): 9.77 ± 0.70
- effect on FG-labeled neurons at mid-lesion and caudal to the lesion (nbm neurons): declining effect
- Fluoro-Gold-labeled neurons in rostral portion of lesioned nbm vs vehicle only (nbm neurons; over 400 μm from midpoint of lesion, P<0.05 (FIG. 3)): significantly more FG-labeled neurons
- decrease in area of dentate gyrus middle molecular layer ([2]; NMDA alone 19±6% decrease): prevented the decrease in area of the middle molecular layer
- loss of entorhinal layer 2 neurons ([2]; s.e.m., NMDA alone 62±11%): 22±10%
- IC50 [3]: 261 nM
- IL-1β (IL-1β): 59 ± 19 pg/mL
